Reference: patent US4264576A, “Contraceptive methods and compositions” (Eli Lilly and Company, priority 1980, dated 1981)
Each block holds one compound with its values, some of them ahead of it.

Assays:
[1] = Drug release rate from dimethylpolysiloxane rubber compositions in calcium-free Ringers solution; type: physicochemical; settings: footnote of Table II; Calc. on basis of hyaluronidase inhibition
Description: An appropriate sample of a dimethylpolysiloxane rubber composition in which is incorporated the test compound is placed in a suitable amount of calcium-free Ringers solution, and the sample and solution are incubated together at 37° C. for a period of time (e.g. 24 hours). […] The equivalent amount of test compound in the removed solution is calculated from standard inhibition curves in which hyaluronidase inhibition is plotted against concentration of the test compound. The calculated result are expressed as micrograms of test compound released per day.
The above test may be repeated for an extended period of time, for example, for 1 day to 360 days, or more, by adding fresh calcium-free Ringer's solution after each removal of the solution for assay.
The sample weight was 4 mg. and the amount of added solution was 1 ml.

[2] = tested on: Dutch Belted virgin rabbits; assay: Antifertility effects in vivo by intrauterine administration; set-up: species or system rabbit; settings: 40-mg dimethylpolysiloxane rubber rod, 10% W/W
Description: Dutch Belted virgin rabbits, each weighing 3-4 pounds, are randomly selected and anesthetized with sodium pentobarbital (50 μg./ml.) administered by IV drip. The uterus of each animal is exposed and a 40-mg. sample in the shape of a rod (3 mm. in diameter) of dimethylpolysiloxane rubber (as prepared in Example 3) containing 10% W/W of sodium sulfopropyl n-dodecanoate is sutured into the right uterine horn at a random location in between the cervix and the utero-tubal junction. The left horn is left untreated to serve as control. The rubber rod is placed into the uterine horn by passing a curved needle through it and through the uterine wall pulling the rod into the uterine lumen. The entry is closed by suturing. Animals (blank) are similarly treated using unmedicated dimethylpolysiloxane rubber to serve as a second group of controls. The animals are given 300,000 units of Duracillin® per day (in four doses) and are allowed to recover for 14 days. Each animal is bred to a male of proven fertility and is immediately given a dose (IV) of appropoximately 100 units of human chorionic gonadotropin (HCG) to facilitate ovulation. Fourteen days after breeding, the animal are sacrificed by cervical dislocation and the uterine horns are examined for implanted embryos. The number of embryos per uterine horn are recorded.

[3] = tested on: virgin dutch belted female rabbit; assay: Antifertility effects in vivo by intravaginal administration; settings: 1 ml of equal volumes Ky-jelly and 10 mg./ml. solution, before breeding, 6 animals
Description: Equal volumes of Ky-jelly® and either Ca^++ free Ringer's solution or a 10 mg./ml. solution of the compound to be tested in Ca^++ free Ringer's solution are well mixed. One milliliter of this is placed into the vagina of a virgin dutch belted female rabbit using a syringe. The female is then immediately bred to a fertile buck. The female is injected I.V. with 100 units of human chorionic gonadotrophin to assure a good ovulation rate.
After approximately 14 days the females are sacrificed by cervical dislocation and the genital system examined for the number of embryos.

cumulus oophorus = assay: Removal of cumulus oophorus from ova by hyaluronidase, in vitro; type: cell-based, rabbit; settings: 10 μl of 10 mg./ml. compound solution in 1 ml calcium-free Ringer's solution, 37° C.
Description: In the absence of sodium sulfopropyl dodecanoate, complete removal of the cumulus oophorus is observed.
Female rabbits are given 100 units of pregnant mares serum (PMS), IM, and 134 units of HCG, IV. After 13 hours the animals are sacrificed, and the ovaries are excised. The ovaries are submerged in calcium-free Ringer's solution containing 20% rabbit serum which had been heated to 55° C. for 20 minutes. Ova with cumulus intact are removed and placed in calcium-free Ringer's solution for incubation at 37° C. Hyaluronidase (10 μl.) of a 10 mg./ml. solution in calciumfree Ringer's solution is added to 20 ova in 1 ml. of the incubation medium. To 10 ova in the same medium is added 10 μl. of a solution of sodium sulfopropyl n-dodecanoate (10 mg./ml.) in calcium-free Ringer's solution. To 10 other ova in the same media is added 10 μl. of calcium-free Ringer's solution as control. The mixtures are incubated at 37° C., and the cumulus oophorus is examined at 15 minute intervals with an American Optical stereomicroscope. In the absence of sodium sulfopropyl n-dodecanoate, the cumulus oophorus is completely removed.

acrosin = acrosin (Homo sapiens, UniProt P10323); assay: Acrosin inhibition in vitro; type: biochemical; settings: statement in words
Sequence of acrosin (P10323 20-421, species assumed): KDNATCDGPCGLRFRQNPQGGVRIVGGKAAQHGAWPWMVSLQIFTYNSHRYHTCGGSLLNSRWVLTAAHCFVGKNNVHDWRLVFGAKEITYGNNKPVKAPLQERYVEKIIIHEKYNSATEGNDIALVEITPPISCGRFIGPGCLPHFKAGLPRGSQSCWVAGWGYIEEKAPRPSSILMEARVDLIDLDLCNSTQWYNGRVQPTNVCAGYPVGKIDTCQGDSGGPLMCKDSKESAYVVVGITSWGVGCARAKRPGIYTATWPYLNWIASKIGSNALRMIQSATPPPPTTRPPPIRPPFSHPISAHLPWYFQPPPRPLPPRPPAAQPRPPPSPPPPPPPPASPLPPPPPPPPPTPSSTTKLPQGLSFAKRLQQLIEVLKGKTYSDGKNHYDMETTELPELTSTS

Compound: CCCCCCCCCCCC(=O)OCCCS(=O)(=O)O.[Na] [CH3 (CH2)10, n=3, sodium sulfopropyl dodecanoate]
Release rate from dimethylpolysiloxane, in vitro [1]: 1 to 3 mg/day | Total No. of embryos ([2]; in right uterine horn, 11 horns, 14 days after breeding): 1 | [drawing 14] (number of embryos per uterine horn) ([2]; in uterine horn, p < .001 compared to untreated and to blank): 0.09 | Avg. No. of Embryos per animal [3]: 0 | No. of embryos ([3]; approximately 14 days): 0 | state of the cumulus oophorus of rabbit ova incubated with hyaluronidase (cumulus oophorus): the cumulus oophorus remain substantially intact | state of the cumulus oophorus of rabbit ova incubated with hyaluronidase (cumulus oophorus; listed as sodium sulfopropyl n-dodecanoate): the cumulus remains substantially intact

Compound: CCCC/C=C\CCCCCCCC(=O)OCCCS(=O)(=O)O.[Na] [cis- CH3 (CH2)3 CHCH(CH2)7, n=3, sodium sulfopropyl myristoleate]
anti-acrosin activity (inhibition in vitro of the action of acrosin) (acrosin): anti-acrosin activity

Compound: sodium sulfopropyl 15-methylheptadecanoate
anti-acrosin activity (inhibition in vitro of the action of acrosin) (acrosin): anti-acrosin activity

Results, then the compound that gave them:

anti-acrosin activity (inhibition in vitro of the action of acrosin) (acrosin): anti-acrosin activity
Compound: CCCC/C=C/CCCCCCCC(=O)OCCCS(=O)(=O)O [trans- CH3 (CH2)3 CHCH(CH2) 7, n=3, sodium sulfopropyl myristelaidate]

anti-acrosin activity (inhibition in vitro of the action of acrosin) (acrosin): anti-acrosin activity
Compound: sodium sulfopropyl 16-methylheptadecanoate
